These results are taken from US20250282799A1, “SUBSTITUTED PYRIDO[4,3-d]PYRIMIDINES AS KRAS MODULATORS” (Alterome Therapeutics, Inc., priority 2023, published 2025).

SMILES strings stand for the structures.

The experiment has as its system KRAS G12V dependent lung adenocarcinoma cell line, NCI-H441. Description: Cellular pERK (Thr202/Tyr204) FRET/HTRF assay. Conditions: Homo sapiens, NCI-H441, cellular pERK (Thr202/Tyr204) HTRF, NCI-H441 cells. The experiment is classed as cell-based. Summed up:
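Adherent NCI-H441 cells, plated the previous night, receive test compound for one hour at 37 °C. They are then lysed with a buffer containing phosphatase inhibitors and incubated at room temperature with Eu3+-cryptate and d2 labelled anti-pERK antibodies. HTRF signal gives IC50 by curve fitting.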
(In TR-FRET formats the signal depends on donor and acceptor labels being close together.)
Broadly, the IC50 is the concentration at which inhibition is half-maximal. A higher IC50 goes with weaker potency in that assay. Regarding `[2H]C([2H])(Oc1nc(N2CCOC[C@H]3[C@H](F)[C@H]32)c2cnc(-c3cc(O)cc4cccc(C#C)c34)c(F)c2n1)[C@@]12CCCN1C[C@H](F)C2` [Example 300, 5-ethynyl-4-(8-fluoro-4-((1S,7S,8S)-8-fluoro-5-oxa-2-azabicyclo[5.1.0]octan-2-yl)-2-(((2R,7aS)-2-fluorotetrahydro-1H-pyrrolizin-7a(5H)-yl)methoxy-d2)pyrido[4,3-d]pyrimidin-7-yl)naphthalen-2-ol], the 50% inhibitory concentration (IC50) was less than 50 nM. For the compound `C#Cc1c(F)ccc2cc(N)cc(-c3ncc4c(N5CCOC[C@@H]6[C@@H](Cl)[C@@H]65)nc(OC[C@@H]5CCCN5C)nc4c3F)c12` [Example 301, 4-(4-((1R,7R,8R)-8-chloro-5-oxa-2-azabicyclo[5.1.0]octan-2-yl)-8-fluoro-2-(((S)-1-methylpyrrolidin-2-yl)methoxy)pyrido[4,3-d]pyrimidin-7-yl)-5-ethynyl-6-fluoronaphthalen-2-amine], the IC50 is 50 to 500 nM. Next, `C#Cc1c(F)ccc2cc(N)cc(-c3ncc4c(N5CCOC[C@H]6[C@H](Cl)[C@H]65)nc(OC[C@@H]5CCCN5C)nc4c3F)c12` [Example 302, 4-(4-((1S,7S,8S)-8-chloro-5-oxa-2-azabicyclo[5.1.0]octan-2-yl)-8-fluoro-2-(((S)-1-methylpyrrolidin-2-yl)methoxy)pyrido[4,3-d]pyrimidin-7-yl)-5-ethynyl-6-fluoronaphthalen-2-amine]: less than 50 nM. Next, `[2H]C([2H])(Oc1nc(N2CCOC[C@H]3[C@H](F)[C@H]32)c2c(F)nc(-c3cc(N)cc4ccc(F)c(C#C)c34)c(F)c2n1)[C@@]12CCCN1C[C@H](F)C2` [Example 303, 4-(5,8-Difluoro-4-((1S,7S,8S)-8-fluoro-5-oxa-2-azabicyclo[5.1.0]octan-2-yl)-2-(((2R,7aS)-2-fluorotetrahydro-1H-pyrrolizin-7a(5H)-yl)methoxy-d2)pyrido[4,3-d]pyrimidin-7-yl)-5-ethynyl-6-fluoronaphthalen-2-amine]: less than 50 nM. On to `[2H]C([2H])(Oc1nc(N2CC[C@@H](C#N)C[C@H]3[C@H](F)[C@H]32)c2cnc(-c3cc(N)cc4ccc(F)c(C#C)c34)c(F)c2n1)[C@@]12CCCN1C[C@H](F)C2` [Example 304, (1S,5S,7R,8S)-2-(7-(3-amino-8-ethynyl-7-fluoronaphthalen-1-yl)-8-fluoro-2-(((2R,7aS)-2-fluorotetrahydro-1H-pyrrolizin-7a(5H)-yl)methoxy-d2)pyrido[4,3-d]pyrimidin-4-yl)-8-fluoro-2-azabicyclo[5.1.0]octane-5-carbonitrile], for which the IC50 is less than 50 nM. Next, `[2H]C([2H])(Oc1nc(N2CC[C@@H](C#N)C[C@@H]3[C@@H](F)[C@@H]32)c2cnc(-c3cc(N)cc4ccc(F)c(C#C)c34)c(F)c2n1)[C@@]12CCCN1C[C@H](F)C2` [Example 305, (1R,5S,7S,8R)-2-(7-(3-amino-8-ethynyl-7-fluoronaphthalen-1-yl)-8-fluoro-2-(((2R,7aS)-2-fluorotetrahydro-1H-pyrrolizin-7a(5H)-yl)methoxy-d2)pyrido[4,3-d]pyrimidin-4-yl)-8-fluoro-2-azabicyclo[5.1.0]octane-5-carbonitrile]: 50 to 500 nM. Next, `[2H]C([2H])(Oc1nc(N2CC[C@H](C#N)C[C@H]3[C@H](F)[C@H]32)c2cnc(-c3cc(N)cc4ccc(F)c(C#C)c34)c(F)c2n1)[C@@]12CCCN1C[C@H](F)C2` [Example 306, (1S,5R,7R,8S)-2-(7-(3-amino-8-ethynyl-7-fluoronaphthalen-1-yl)-8-fluoro-2-(((2R,7aS)-2-fluorotetrahydro-1H-pyrrolizin-7a(5H)-yl)methoxy-d2)pyrido[4,3-d]pyrimidin-4-yl)-8-fluoro-2-azabicyclo[5.1.0]octane-5-carbonitrile]: 50 to 500 nM; `[2H]C([2H])(Oc1nc(N2CC[C@H](C#N)C[C@@H]3[C@@H](F)[C@@H]32)c2cnc(-c3cc(N)cc4ccc(F)c(C#C)c34)c(F)c2n1)[C@@]12CCCN1C[C@H](F)C2` [Example 307, (1R,5R,7S,8R)-2-(7-(3-amino-8-ethynyl-7-fluoronaphthalen-1-yl)-8-fluoro-2-(((2R,7aS)-2-fluorotetrahydro-1H-pyrrolizin-7a(5H)-yl)methoxy-d2)pyrido[4,3-d]pyrimidin-4-yl)-8-fluoro-2-azabicyclo[5.1.0]octane-5-carbonitrile]: 50 to 500 nM; `[2H]C([2H])(Oc1nc(N2CC[C@@H](C#N)C[C@H]3[C@@H](F)[C@H]32)c2cnc(-c3cc(N)cc4ccc(F)c(C#C)c34)c(F)c2n1)[C@@]12CCCN1C[C@H](F)C2` [Example 308, (1S,5S,7R,8R)-2-(7-(3-amino-8-ethynyl-7-fluoronaphthalen-1-yl)-8-fluoro-2-(((2R,7aS)-2-fluorotetrahydro-1H-pyrrolizin-7a(5H)-yl)methoxy-d2)pyrido[4,3-d]pyrimidin-4-yl)-8-fluoro-2-azabicyclo[5.1.0]octane-5-carbonitrile]: 50 to 500 nM. `[2H]C([2H])(Oc1nc(N2CC[C@H](C#N)C[C@H]3[C@@H](F)[C@H]32)c2cnc(-c3cc(N)cc4ccc(F)c(C#C)c34)c(F)c2n1)[C@@]12CCCN1C[C@H](F)C2` [Example 310, (1S,5R,7R,8R)-2-(7-(3-amino-8-ethynyl-7-fluoronaphthalen-1-yl)-8-fluoro-2-(((2R,7aS)-2-fluorotetrahydro-1H-pyrrolizin-7a(5H)-yl)methoxy-d2)pyrido[4,3-d]pyrimidin-4-yl)-8-fluoro-2-azabicyclo[5.1.0]octane-5-carbonitrile] had a 50% inhibitory concentration (IC50) of 50 to 500 nM. As to `[2H]C([2H])(Oc1nc(N2CC[C@@H](C#N)C[C@@H]3[C@H](F)[C@@H]32)c2cnc(-c3cc(N)cc4ccc(F)c(C#C)c34)c(F)c2n1)[C@@]12CCCN1C[C@H](F)C2` [Example 311, (1R,5S,7S,8S)-2-(7-(3-amino-8-ethynyl-7-fluoronaphthalen-1-yl)-8-fluoro-2-(((2R,7aS)-2-fluorotetrahydro-1H-pyrrolizin-7a(5H)-yl)methoxy-d2)pyrido[4,3-d]pyrimidin-4-yl)-8-fluoro-2-azabicyclo[5.1.0]octane-5-carbonitrile], the IC50 was in the range of 50 to 500 nM. `[2H]C([2H])(Oc1nc(N2CCOC[C@H]3[C@H](F)[C@H]32)c2cnc(-c3cccc4ccc(Cl)c(C#C)c34)c(F)c2n1)[C@@]12CCCN1C[C@H](F)C2` [Example 318, (1S,7S,8S)-2-(7-(7-chloro-8-ethynylnaphthalen-1-yl)-8-fluoro-2-(((2R,7aS)-2-fluorotetrahydro-1H-pyrrolizin-7a(5H)-yl)methoxy-d2)pyrido[4,3-d]pyrimidin-4-yl)-8-fluoro-5-oxa-2-azabicyclo[5.1.0]octane] displayed an IC50 of less than 50 nM. Next, `[2H]C([2H])(Oc1nc(N2CCOC[C@H]3[C@H](F)[C@H]32)c2cnc(-c3cccc4cccc(C#C)c34)c(F)c2n1)[C@@]12CCCN1C[C@H](F)C2` [Example 319, (1S,7S,8S)-2-(7-(8-ethynylnaphthalen-1-yl)-8-fluoro-2-(((2R,7aS)-2-fluorotetrahydro-1H-pyrrolizin-7a(5H)-yl)methoxy-d2)pyrido[4,3-d]pyrimidin-4-yl)-8-fluoro-5-oxa-2-azabicyclo[5.1.0]octane]: less than 50 nM.
